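Where inhibition never reached the appropriate level, the endpoint shown equals the highest concentration tested. Otherwise, values were interpolated linearly from a five-concentration, 48-hour dose response in 96-well plates. The concentration for full growth arrest is given as TGI.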
Columns and labels:
Experiment in all cases: DTP human tumour cell line panel, 48 h
A498 renal = tested on: A498 renal
HCT-15 colon = tested on: HCT-15 colon
HS 578T breast = tested on: HS 578T breast
M14 melanoma = tested on: M14 melanoma
MALME-3M melanoma = tested on: MALME-3M melanoma
MDA-MB-231 breast = tested on: MDA-MB-231 breast
NCI/ADR-RES ovarian = tested on: NCI/ADR-RES ovarian
PC-3 prostate = tested on: PC-3 prostate
SK-OV-3 ovarian = tested on: SK-OV-3 ovarian
UACC-257 melanoma = tested on: UACC-257 melanoma

COC(=O)C(/C(=N/NC(=O)c1ccncc1)C(=O)Nc1ccccc1OC)c1nc2ccc(Cl)cc2[nH]c1=O (stereo not given)
TGI (A498 renal): > 100 µM
TGI (HCT-15 colon): > 100 µM
TGI (HS 578T breast): > 100 µM
TGI (M14 melanoma): > 100 µM
TGI (MALME-3M melanoma): > 100 µM
TGI (MDA-MB-231 breast): > 100 µM
TGI (NCI/ADR-RES ovarian): > 100 µM
TGI (PC-3 prostate): > 100 µM
TGI (SK-OV-3 ovarian): > 100 µM
TGI (UACC-257 melanoma): > 100 µM

CS(=O)(=O)OCCN1CCC2(CC1)SSC1(CCN(CCOS(C)(=O)=O)CC1)S2
TGI (A498 renal): 56.1 µM
TGI (HCT-15 colon): > 100 µM
TGI (HS 578T breast): > 100 µM
TGI (M14 melanoma): > 100 µM
TGI (MALME-3M melanoma): 68.1 µM
TGI (MDA-MB-231 breast): > 100 µM
TGI (NCI/ADR-RES ovarian): > 100 µM
TGI (PC-3 prostate): > 100 µM
TGI (SK-OV-3 ovarian): > 100 µM
TGI (UACC-257 melanoma): > 100 µM

O=C(N/N=C\c1cccc2ccccc12)Nc1ccc([N+](=O)[O-])cc1
TGI (A498 renal): > 100 µM
TGI (HCT-15 colon): > 100 µM
TGI (HS 578T breast): > 100 µM
TGI (M14 melanoma): > 100 µM
TGI (MALME-3M melanoma): > 69.4 µM
TGI (MDA-MB-231 breast): > 100 µM
TGI (NCI/ADR-RES ovarian): > 71.4 µM
TGI (PC-3 prostate): > 70.5 µM
TGI (SK-OV-3 ovarian): 97.2 µM
TGI (UACC-257 melanoma): > 100 µM

COc1ccc(/C=C/c2cc(O)cc(OC)c2)cc1
TGI (A498 renal): > 100 µM
TGI (HCT-15 colon): 14.4 µM
TGI (HS 578T breast): > 100 µM
TGI (M14 melanoma): > 100 µM
TGI (MALME-3M melanoma): > 100 µM
TGI (MDA-MB-231 breast): > 100 µM
TGI (NCI/ADR-RES ovarian): > 100 µM
TGI (PC-3 prostate): > 100 µM
TGI (SK-OV-3 ovarian): > 100 µM
TGI (UACC-257 melanoma): > 100 µM

CN(CCc1ccc(Cl)c(Cl)c1)[C@H]1CCCC[C@H]1N1CCCC1
TGI (A498 renal): > 100 µM
TGI (HCT-15 colon): > 100 µM
TGI (HS 578T breast): > 100 µM
TGI (M14 melanoma): > 100 µM
TGI (MALME-3M melanoma): > 100 µM
TGI (MDA-MB-231 breast): > 100 µM
TGI (NCI/ADR-RES ovarian): > 100 µM
TGI (PC-3 prostate): > 100 µM
TGI (SK-OV-3 ovarian): > 100 µM
TGI (UACC-257 melanoma): > 100 µM

COC(=O)c1sc(=S)sc1SCc1ccccc1CSc1sc(=S)sc1C(=O)OC
TGI (A498 renal): > 100 µM
TGI (HCT-15 colon): > 100 µM
TGI (HS 578T breast): > 100 µM
TGI (M14 melanoma): > 100 µM
TGI (MALME-3M melanoma): > 100 µM
TGI (MDA-MB-231 breast): > 100 µM
TGI (NCI/ADR-RES ovarian): > 100 µM
TGI (PC-3 prostate): > 100 µM
TGI (SK-OV-3 ovarian): > 100 µM
TGI (UACC-257 melanoma): > 100 µM

CC(C)CCC[C@@H](C)[C@H]1CC[C@H]2[C@@H]3CC=C4C[C@@H](OC(=O)c5cccc6c(=O)c7ccccc7[nH]c56)CC[C@]4(C)[C@H]3CC[C@]12C
TGI (A498 renal): > 75 µM
TGI (HCT-15 colon): > 75 µM
TGI (HS 578T breast): > 75 µM
TGI (M14 melanoma): > 75 µM
TGI (MALME-3M melanoma): > 75 µM
TGI (MDA-MB-231 breast): > 75 µM
TGI (NCI/ADR-RES ovarian): > 75 µM
TGI (PC-3 prostate): > 75 µM
TGI (SK-OV-3 ovarian): > 75 µM
TGI (UACC-257 melanoma): > 75 µM

CCOC(=O)c1ccc2nc(NC(=O)COC(=O)CSc3nc(C)cc(C)n3)sc2c1
TGI (A498 renal): > 100 µM
TGI (HCT-15 colon): > 100 µM
TGI (HS 578T breast): > 100 µM
TGI (M14 melanoma): > 100 µM
TGI (MALME-3M melanoma): > 100 µM
TGI (MDA-MB-231 breast): > 100 µM
TGI (NCI/ADR-RES ovarian): > 100 µM
TGI (PC-3 prostate): > 100 µM
TGI (SK-OV-3 ovarian): > 100 µM
TGI (UACC-257 melanoma): > 100 µM

CN=C(Nn1cnnc1)OC
TGI (A498 renal): > 100 µM
TGI (HCT-15 colon): > 100 µM
TGI (HS 578T breast): > 100 µM
TGI (M14 melanoma): > 100 µM
TGI (MALME-3M melanoma): > 100 µM
TGI (MDA-MB-231 breast): > 100 µM
TGI (NCI/ADR-RES ovarian): > 100 µM
TGI (PC-3 prostate): > 100 µM
TGI (SK-OV-3 ovarian): > 100 µM
TGI (UACC-257 melanoma): > 100 µM

O=C(/C=C/c1ccc(-c2ccccc2[N+](=O)[O-])o1)NCc1ccc(C(=O)NCCc2ccccc2)cc1
TGI (A498 renal): > 100 µM
TGI (HCT-15 colon): > 100 µM
TGI (HS 578T breast): > 100 µM
TGI (M14 melanoma): > 100 µM
TGI (MALME-3M melanoma): > 100 µM
TGI (MDA-MB-231 breast): > 100 µM
TGI (NCI/ADR-RES ovarian): > 100 µM
TGI (PC-3 prostate): > 100 µM
TGI (SK-OV-3 ovarian): > 100 µM
TGI (UACC-257 melanoma): > 100 µM

OC1CCCC1C(O)(C(F)(F)F)C(F)(F)F (stereo not given)
TGI (A498 renal): > 100 µM
TGI (HCT-15 colon): > 100 µM
TGI (HS 578T breast): > 100 µM
TGI (M14 melanoma): > 100 µM
TGI (MALME-3M melanoma): > 100 µM
TGI (MDA-MB-231 breast): > 100 µM
TGI (NCI/ADR-RES ovarian): > 100 µM
TGI (PC-3 prostate): > 100 µM
TGI (SK-OV-3 ovarian): > 100 µM
TGI (UACC-257 melanoma): > 100 µM

S=C(N/N=C\C=N/NC(=S)N1CCCCCC1)N1CCCCCC1
TGI (A498 renal): > 100 µM
TGI (HCT-15 colon): > 100 µM
TGI (HS 578T breast): > 100 µM
TGI (M14 melanoma): > 100 µM
TGI (MALME-3M melanoma): > 93.7 µM
TGI (MDA-MB-231 breast): > 100 µM
TGI (NCI/ADR-RES ovarian): > 85.9 µM
TGI (PC-3 prostate): > 100 µM
TGI (SK-OV-3 ovarian): > 100 µM
TGI (UACC-257 melanoma): > 100 µM

CCOC(=O)c1ccc(C(=O)C(C(C)=O)C(=O)OC(C)(C)C)n1C (stereo not given)
TGI (A498 renal): > 100 µM
TGI (HCT-15 colon): > 100 µM
TGI (HS 578T breast): > 100 µM
TGI (M14 melanoma): > 100 µM
TGI (MALME-3M melanoma): > 100 µM
TGI (MDA-MB-231 breast): > 100 µM
TGI (NCI/ADR-RES ovarian): > 100 µM
TGI (PC-3 prostate): > 100 µM
TGI (SK-OV-3 ovarian): > 100 µM
TGI (UACC-257 melanoma): > 100 µM

CC(=O)O[C@H]1C#C/C=C\C#CC[C@@H]2C(=O)N(C(=O)OC(C)(C)C)[C@@H]12
TGI (A498 renal): > 100 µM
TGI (HCT-15 colon): 51.4 µM
TGI (HS 578T breast): > 88.7 µM
TGI (M14 melanoma): > 100 µM
TGI (MALME-3M melanoma): > 100 µM
TGI (MDA-MB-231 breast): > 100 µM
TGI (NCI/ADR-RES ovarian): 74.7 µM
TGI (PC-3 prostate): > 100 µM
TGI (SK-OV-3 ovarian): > 100 µM
TGI (UACC-257 melanoma): > 100 µM
